Measured values reported in patent US6919348B2, “Therapeutic 1,2,3,6-tetrahydropyrimidine-2-one compositions and methods therewith” (priority 2002, dated 2005).
Like-named read-outs stand apart in the source and are kept apart here.

What was measured:
[1] = Solubility in solvents; assay type: physicochemical
Experimental: (§1) Icilin is a lemon yellow crystalline powder with a molecular weight of 311 Daltons and a melting point of 229 to 231° C. […] Thus, icilin would be considered as a lipophilic, hydrophobic compound that is not easily miscible with aqueous systems. Analogs of icilin, for example, with acetyoxy, ethyl, fluoro, or trifluoromethyl substitutions, retain similar chemical and physical properties and are included within the scope of this invention.
Menthol, by contrast, is a white crystal with a molecular weight of 156 Daltons and a melting point of 41 to 43° C., a temperature slightly above body temperature. […] Some analogs of menthol, e.g. (+)-neomenthol are colorless liquids at room temperature.

[2] = system: receptors for cold; settings: cited from earlier work
[3] = Stability at room temperature; assay type: physicochemical
Experimental: as §1

[4] = target: TRP(M8) receptor (Rattus norvegicus, UniProt Q8R455); settings: cloned and transfected TRP(M8) receptor; McKemy et al. 2002; cited from earlier work
Sequence of TRP(M8) receptor (Q8R455 whole entry): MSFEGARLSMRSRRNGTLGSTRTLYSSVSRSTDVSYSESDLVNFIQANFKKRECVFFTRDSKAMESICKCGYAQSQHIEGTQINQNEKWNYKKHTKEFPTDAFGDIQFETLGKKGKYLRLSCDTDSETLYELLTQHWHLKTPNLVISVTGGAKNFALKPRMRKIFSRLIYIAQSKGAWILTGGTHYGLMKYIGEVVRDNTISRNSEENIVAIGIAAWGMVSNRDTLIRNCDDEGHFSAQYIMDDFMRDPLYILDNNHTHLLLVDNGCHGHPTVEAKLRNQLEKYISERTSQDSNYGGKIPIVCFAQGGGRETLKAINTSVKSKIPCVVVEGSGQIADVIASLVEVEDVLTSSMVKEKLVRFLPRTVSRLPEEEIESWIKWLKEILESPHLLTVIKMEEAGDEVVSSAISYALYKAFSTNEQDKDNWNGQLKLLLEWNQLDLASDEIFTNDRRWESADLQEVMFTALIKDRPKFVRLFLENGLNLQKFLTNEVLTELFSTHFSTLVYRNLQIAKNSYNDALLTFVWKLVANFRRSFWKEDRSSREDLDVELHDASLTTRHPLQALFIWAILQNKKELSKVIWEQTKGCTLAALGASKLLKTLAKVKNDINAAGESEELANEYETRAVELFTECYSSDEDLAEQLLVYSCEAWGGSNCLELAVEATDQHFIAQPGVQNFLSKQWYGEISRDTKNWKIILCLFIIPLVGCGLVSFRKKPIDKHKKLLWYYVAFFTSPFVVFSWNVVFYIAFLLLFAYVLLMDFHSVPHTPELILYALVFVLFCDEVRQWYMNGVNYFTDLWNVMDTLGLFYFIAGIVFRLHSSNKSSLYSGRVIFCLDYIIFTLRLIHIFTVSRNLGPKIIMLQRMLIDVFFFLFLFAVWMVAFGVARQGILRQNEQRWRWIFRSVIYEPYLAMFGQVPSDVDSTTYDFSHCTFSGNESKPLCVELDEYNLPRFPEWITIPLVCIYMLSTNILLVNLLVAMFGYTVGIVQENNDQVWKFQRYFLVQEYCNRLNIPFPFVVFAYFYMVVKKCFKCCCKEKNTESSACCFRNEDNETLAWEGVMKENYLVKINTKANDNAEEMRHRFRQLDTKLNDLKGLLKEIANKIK

[5] = system: nasal cavity of subject with hay fever; experiment: Examples 5 and 6: nasal administration in subject with hay fever; assay type: in vivo, human; settings: for effect on nasal discharge, urge to sneeze, itchy eyelids: inhaled via the nose, hay fever subject
Experimental: A subject, suffering from hay fever (in this case, seasonal allergy to grass pollen) stopped taking antihistamines for 24 hours and inhaled via the nose 0.5 mg or 2 mg (on 2 separate occasions) of icilin in powder form.
Icilin, dissolved in propylene glycol, was added to a commercial preparation of an anti-allergy nasal spray containing fluticasone to attain a concentration of about 10 mg icilin/ml solution.

[6] = system: abrasion on finger; experiment: Example 3: application to abrasion wound on finger; assay type: in vivo, human; settings: applied directly to abrasion; icilin 0.8 mg
Experimental: A subject with an abrasion on their finger (caused by friction) of about 1 square centimeter received 0.8 mg of icilin applied directly to the wound with a swab stick.

[7] = system: anorectal area of subject with inflamed hemorrhoids; experiment: Example 2: anorectal administration in inflamed hemorrhoids; assay type: in vivo, human; settings: icilin 20 mg/ml in propylene glycol admixed with saline laxative, 2 ml emulsion instilled into rectum
Experimental: A subject with inflamed hemorrhoids self-administered a commercial suppository, shaped as a 1.5-inch bullet, containing 25 mg of hydrocortisone. The suppository was coated with 5 mg of icilin and 5 mg of WS-23, a menthol analog. Cooling sensations were felt within 5 minutes in the anorectal area extending to the scrotum. Relief of discomfort and itch in the anorectal area lasted for longer than 3 hours. In a similar experiment, icilin, dissolved 20 mg/ml in propylene glycol was admixed with a isotonic sodium chloride solution laxative (containing monobasic sodium phosphate and dibasic sodium phosphate salts), and 2 ml of the emulsion was instilled into the rectum. Again, cooling sensations with relief of itch and discomfort were obtained for 2 hours.

[8] = system: lower eyelid; experiment: Example 4: application to lower eyelid; assay type: in vivo, human; settings: for duration of cooling/refreshing effect: icilin 10 mg/ml solution
Experimental: A small quantity of a 10 mg/ml solution of icilin dissolved in propylene glycol was applied with a cotton swab stick to the lower eyelid of a subject. […] This effect lasted for about 45 minutes. […] The eyelids smarted from the harsh irritant actions of menthol. The individual blinked and the eyes were momentarily closed with a small degree of lachrymation. But, after about 1 minute, this discomfort dissipated and the cooling sensations of menthol were felt on the eyelid. The sensations were refreshing and lasted for about 15 minutes and accompanied by a minty odor.
By contrast, menthol cannot be used in eye drops because of its irritant actions.

[9] = system: shaking behavior in the rat; settings: cited from earlier work
[10] = system: rats; settings: cited from earlier work
[11] = system: surfaces of the human body; experiment: Irritation upon contact with the surfaces of the human body; assay type: in vivo
[12] = system: mouth, throat and upper alimentary tract; experiment: Example 7: chewing gum; assay type: in vivo, human
Experimental: Two mg of icilin was spread between two wafers of a fruit-flavored chewing gum and chewed for 5 minutes by a subject. […] But after 12 minutes general sensations of coolness were felt in the thoracic internal structures behind the sternum, in the epigastric area. These cooling effects lasted for about 45 minutes. By contrast, the chewing of mentholated gum or mentholated candy, produced after an initial harsh taste, strong cooling of the mouth and throat that lasted only about 10 minutes.
This experiment illustrates important pharmacokinetic differences between icilin and menthol. The effects of mentholated gum are immediate and localized to the mouth and throat. […] Further protection of the icilin by standard encapsulation technology will allow it to reach the distal portions of the gastrointestinal tract such as the lower ileum and colon where it may exert its pharmacological effects as a cold receptor agonist.

[13] = system: skin or mucous membranes; experiment: Duration of cooling effect after application to skin or mucous membranes; assay type: in vivo, human; settings: applied to the skin or mucous membranes, regardless of dose
Description: The physico-chemical differences between icilin and menthol confer unique advantages to icilin for manipulating sensory nerve discharges in certain defined clinical situations, as described hereinafter. The first advantage is the site of delivery: menthol cannot be delivered to the eyelids and its environs, the nasal membranes, or the mucous membranes of the anogenital region at high concentrations because it is pungent, stings and irritates. Icilin, on the other hand, can be administered to these sites because it is non-irritating. A second major advantage of icilin is its duration of action. Icilin's actions can be localized at its site of application for a prolonged period because of its lipophilic characteristics and because it can be administered as a powder or dispersed (either in solid form or solubilized) as an emulsion. By contrast, menthol is volatile and rapidly re-distributes and metabolizes in the body so its duration of action is relatively short. For example, icilin applied to nasal membranes can produce refreshing sensations for up to 3 hours.
In practicing the present invention, the topical administration of icilin relieves itching, especially when given in combination with a menthol analog. […]

O=C1NC(c2cccc([N+](=O)[O-])c2)=CCN1c1ccccc1O [icilin, 1-[2-hydroxy]-4-[3-nitrophenyl]-1,2,3,6-tetrahydropyridimine-2-one]
solubility in ethanol and acetone [1]: slightly soluble
solubility in water [1]: virtually insoluble
solubility in organic solvents ([1]; dimethylsulfoxide, nitromethane, dimethylacetamide and propanediols): readily soluble
sensation elicited ([2]; 0.1 mg applied to the dorsum of the tongue): prickling sensations of cold
sensation elicited ([2]; ingestion of 6 mg, on one occasion out of three): sensations of coolness on the cheeks and on the inner surfaces of the arms and legs
stability [3]: stable at room temperature
potency relative to menthol in eliciting ion channel current changes [4]: about 200 times
duration of sense of free and unobstructed airflow / cold sensations ([5]; 0.5 mg or 2 mg powder inhaled via the nose): about 3 hours
duration of refreshing sensations ([5]; applied to nasal membranes): up to 3 hours
effect on nasal discharge, urge to sneeze, itchy eyelids [5]: curtailed and terminated
effect on pain and coldness at wound site [6]: pain was lessened
duration of cooling sensations with relief of itch and discomfort [7]: 2 h
irritation of the eyelid [8]: without acute irritation
onset of prickling sensations of cold ([8]; 10 mg/ml in propylene glycol): ≤ 10 min
duration of cooling/refreshing effect ([8]; menthol crystals): about 45 minutes
potency relative to menthol on shaking behavior ([9]; rat, molar basis): 400 times
behavioral syndrome elicited ([9]; rats and monkeys, accompanied by hyperthermia, hyperactivity and ptosis): wet dog shake behavior
toxicity relative to menthol, by oral median lethal dose [10]: less toxic than menthol
irritation upon contact with body surfaces ([11]; powder): non-irritating
coolness in the mouth or throat ([12]; 2 mg in chewing gum): No sensations of coolness
onset of general sensations of coolness ([12]; 2 mg in chewing gum chewed 5 minutes, behind the sternum, epigastric area): 12 min
duration of cooling effects ([12]; 2 mg in chewing gum, thoracic/epigastric area): about 45 minutes

CC1CCC(C(C)C)C(O)C1 (stereo not drawn) [menthol, reference compound]
solubility in ethanol [1]: soluble
solubility in water [1]: slightly soluble
duration of cooling sensations [13]: 15 to 30 min
duration of cooling effect ([5]; 0.8 mg crystals inhaled): 25 to 30 min
irritation on nasal inhalation ([5]; inhalation of crystals): initial burning sensation
effect on nasal discharge, urge to sneeze, itchy eyelids [5]: No overt beneficial effects
effect on pain and coldness at wound site [6]: did not elicit sensations of coldness or pain reduction
irritation of the eyelid [8]: sharp discomfort
duration of cooling/refreshing effect ([8]; menthol crystals): about 15 minutes
time until discomfort dissipated ([8]; menthol crystals): about 1 minute
irritation ([11]; high concentrations, eyes): irritating to the eyes
